In assay [1] the target is Glutamate receptor ionotropic, NMDA 1 (Rattus norvegicus, UniProt P35439).
The target of assay [2] is T1, Progesterone receptor (Homo sapiens, UniProt P06401).
T1 sequence (P06401 whole entry): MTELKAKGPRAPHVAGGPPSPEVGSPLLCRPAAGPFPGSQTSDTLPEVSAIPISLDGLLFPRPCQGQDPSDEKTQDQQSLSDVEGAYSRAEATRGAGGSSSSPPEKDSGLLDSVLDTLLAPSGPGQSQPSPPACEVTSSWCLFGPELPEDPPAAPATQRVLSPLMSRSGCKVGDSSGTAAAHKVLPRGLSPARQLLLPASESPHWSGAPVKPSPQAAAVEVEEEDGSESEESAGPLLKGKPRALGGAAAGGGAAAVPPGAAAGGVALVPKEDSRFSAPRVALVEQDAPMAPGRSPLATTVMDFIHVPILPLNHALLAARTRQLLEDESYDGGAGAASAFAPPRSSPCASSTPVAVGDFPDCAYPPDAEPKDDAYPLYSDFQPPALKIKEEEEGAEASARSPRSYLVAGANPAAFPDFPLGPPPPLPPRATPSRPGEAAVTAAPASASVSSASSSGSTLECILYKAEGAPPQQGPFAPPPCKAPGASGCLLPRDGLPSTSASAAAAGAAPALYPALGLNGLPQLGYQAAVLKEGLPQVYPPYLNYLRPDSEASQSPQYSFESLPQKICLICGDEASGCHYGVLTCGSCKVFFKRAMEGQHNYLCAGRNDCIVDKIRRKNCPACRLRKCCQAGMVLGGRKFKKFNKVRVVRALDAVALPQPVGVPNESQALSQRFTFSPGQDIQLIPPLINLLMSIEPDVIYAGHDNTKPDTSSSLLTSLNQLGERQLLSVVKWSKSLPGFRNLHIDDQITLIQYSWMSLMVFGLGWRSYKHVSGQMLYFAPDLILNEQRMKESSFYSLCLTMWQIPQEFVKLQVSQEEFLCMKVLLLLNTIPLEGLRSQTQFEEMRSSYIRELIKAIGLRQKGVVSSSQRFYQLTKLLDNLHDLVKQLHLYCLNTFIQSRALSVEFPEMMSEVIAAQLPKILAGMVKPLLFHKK
In kind it is functional.

Assay [3] deals with T1, Progesterone receptor. The format is functional. The source holds these as a separate data set.
In a further assay the target is T2, Endothelin-1 receptor (Homo sapiens, UniProt P25101).
T2 sequence (P25101 whole entry): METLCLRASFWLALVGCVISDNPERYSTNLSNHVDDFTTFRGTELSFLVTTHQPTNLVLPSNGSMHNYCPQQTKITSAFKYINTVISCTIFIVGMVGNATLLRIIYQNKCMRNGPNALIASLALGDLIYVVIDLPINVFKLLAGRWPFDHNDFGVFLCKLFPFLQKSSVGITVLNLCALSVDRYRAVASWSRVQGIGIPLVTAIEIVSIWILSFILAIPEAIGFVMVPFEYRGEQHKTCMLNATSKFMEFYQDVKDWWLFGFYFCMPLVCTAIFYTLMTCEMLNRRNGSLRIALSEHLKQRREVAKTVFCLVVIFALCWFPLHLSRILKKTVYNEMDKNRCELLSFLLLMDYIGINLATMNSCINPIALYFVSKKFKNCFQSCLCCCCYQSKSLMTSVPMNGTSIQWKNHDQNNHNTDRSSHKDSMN

Assay [4] deals with T3, Alpha-1A adrenergic receptor (Homo sapiens, UniProt P35348).
T3 sequence (P35348 whole entry): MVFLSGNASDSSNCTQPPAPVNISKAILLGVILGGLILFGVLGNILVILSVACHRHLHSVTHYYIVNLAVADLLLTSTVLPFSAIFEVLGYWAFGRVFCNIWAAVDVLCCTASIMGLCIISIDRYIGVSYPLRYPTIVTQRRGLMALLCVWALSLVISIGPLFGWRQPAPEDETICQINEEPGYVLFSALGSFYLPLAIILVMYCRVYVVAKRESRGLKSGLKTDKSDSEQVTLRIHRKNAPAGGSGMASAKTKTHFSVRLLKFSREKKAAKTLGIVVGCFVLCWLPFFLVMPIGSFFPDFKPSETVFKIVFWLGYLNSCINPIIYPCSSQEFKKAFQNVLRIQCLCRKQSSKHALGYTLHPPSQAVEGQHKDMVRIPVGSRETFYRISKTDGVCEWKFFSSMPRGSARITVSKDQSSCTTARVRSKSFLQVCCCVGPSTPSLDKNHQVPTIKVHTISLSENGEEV
In kind it is functional, cell-based.

Assay [5] addresses T1, Progesterone receptor.
In assay [6] the target is T4, Amine oxidase [flavin-containing] A (Homo sapiens, UniProt P21397).
T4 sequence (P21397 whole entry): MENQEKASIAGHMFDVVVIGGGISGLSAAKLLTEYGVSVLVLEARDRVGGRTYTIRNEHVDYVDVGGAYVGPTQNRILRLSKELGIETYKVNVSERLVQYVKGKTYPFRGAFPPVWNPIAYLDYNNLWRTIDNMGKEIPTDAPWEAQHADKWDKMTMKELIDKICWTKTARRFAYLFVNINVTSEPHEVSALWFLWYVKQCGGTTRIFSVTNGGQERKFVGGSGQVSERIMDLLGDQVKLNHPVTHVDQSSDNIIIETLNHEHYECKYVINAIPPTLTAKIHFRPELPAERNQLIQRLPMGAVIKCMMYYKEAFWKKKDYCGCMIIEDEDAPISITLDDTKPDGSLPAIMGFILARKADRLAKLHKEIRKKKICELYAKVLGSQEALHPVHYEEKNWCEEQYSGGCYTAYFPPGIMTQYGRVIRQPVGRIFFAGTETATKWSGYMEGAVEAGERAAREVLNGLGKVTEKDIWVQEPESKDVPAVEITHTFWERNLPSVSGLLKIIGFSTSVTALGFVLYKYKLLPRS
The format is functional.

The target in another assay is Histamine H3 receptor (Homo sapiens, UniProt Q9Y5N1).
Sequence of Histamine H3 receptor (Q9Y5N1 whole entry): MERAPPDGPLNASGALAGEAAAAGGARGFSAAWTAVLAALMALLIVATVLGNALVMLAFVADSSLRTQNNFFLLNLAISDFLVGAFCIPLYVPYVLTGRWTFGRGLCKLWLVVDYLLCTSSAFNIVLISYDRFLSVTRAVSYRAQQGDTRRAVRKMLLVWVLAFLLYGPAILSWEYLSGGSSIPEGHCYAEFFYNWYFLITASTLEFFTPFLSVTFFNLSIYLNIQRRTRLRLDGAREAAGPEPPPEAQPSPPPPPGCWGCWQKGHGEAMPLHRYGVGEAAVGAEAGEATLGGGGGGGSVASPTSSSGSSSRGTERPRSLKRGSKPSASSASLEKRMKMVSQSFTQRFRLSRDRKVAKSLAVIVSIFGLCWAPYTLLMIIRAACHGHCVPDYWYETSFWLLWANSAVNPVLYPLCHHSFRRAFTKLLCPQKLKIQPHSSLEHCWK

Bounds are passed on as bounds.
Further: assay procedure not described here.

With `NC[C@H]1CC[C@H](C(=O)O)CC1` [TRANEXAMIC ACID], the AC50 (in assay [1]; on Progesterone receptor [2]; on Progesterone receptor [3]) was greater than 10 µM throughout.
Consider `CCc1nn(CCCN2CCN(c3cccc(Cl)c3)CC2)c(=O)n1CCOc1ccccc1` [NEFAZODONE], for which the AC50 in assay [1] was greater than 10 µM; at Endothelin-1 receptor it was greater than 30 µM.
For the compound `CNC(=O)c1cc(Oc2ccc(NC(=O)Nc3ccc(Cl)c(C(F)(F)F)c3)cc2)ccn1` [SORAFENIB], the AC50 was greater than 30 µM in assay [1]; greater than 30 µM at Progesterone receptor [2]; 15 µM in assay [4]; greater than 30 µM on Endothelin-1 receptor; greater than 30 µM at Progesterone receptor [3].
As for `NC[C@H]1O[C@H](O[C@H]2[C@H](O)[C@@H](O[C@H]3O[C@H](CO)[C@@H](O)[C@H](N)[C@H]3O)[C@H](N)C[C@@H]2N)[C@H](O)[C@@H](O)[C@@H]1O` [KANAMYCIN], the AC50 is greater than 10 µM in assay [1], greater than 10 µM on Progesterone receptor [2], greater than 30 µM in assay [4] and greater than 10 µM at Progesterone receptor [3].
As for `NS(=O)(=O)c1cc2c(cc1Cl)NCNS2(=O)=O` [HYDROCHLOROTHIAZIDE], the half-maximal activity concentration (AC50) in assay [1] was greater than 10 µM; at Endothelin-1 receptor, greater than 30 µM.
Regarding `CC(C)(C(=O)c1cccnc1)c1cccnc1` [METYRAPONE], the half-maximal activity concentration (AC50) (in assay [1]; at Progesterone receptor [2]; on Progesterone receptor [3]) was greater than 10 µM each time.
Take `CC(C(=O)O)c1ccc(C(=O)c2cccs2)cc1` (stereo not drawn) [SUPROFEN]: the concentration at half-maximal activity (AC50) (in assay [1]; on Progesterone receptor [2]; at Progesterone receptor [3]) was greater than 10 µM throughout.
Turning to `CCCS(=O)(=O)Nc1ccc(F)c(C(=O)c2c[nH]c3ncc(-c4ccc(Cl)cc4)cc23)c1F` [VEMURAFENIB], the half-maximal activity concentration (AC50) was greater than 30 µM in assay [1], 23 µM on Progesterone receptor [2], greater than 30 µM in assay [4] and greater than 30 µM at Endothelin-1 receptor.
`NC1=NC(=O)C(c2ccccc2)O1` (stereo not drawn) [PEMOLINE] registered an AC50 in assay [1] greater than 10 µM.
For `CN1C(=O)CC(C)(c2ccccc2)C1=O` (stereo not drawn) [METHSUXIMIDE], the half-maximal activity concentration (AC50) (in assay [1]; on Progesterone receptor [2]; at Progesterone receptor [3]) was greater than 10 µM throughout.
As for `OCc1cc([C@@H](O)CNCCCCCCOCCOCc2c(Cl)cccc2Cl)ccc1O` [VILANTEROL], the AC50 at Progesterone receptor [2], at Endothelin-1 receptor and at Progesterone receptor [3] was greater than 30 µM each time.
On to `COc1cc(Nc2c(C#N)cnc3cc(OCCCN4CCN(C)CC4)c(OC)cc23)c(Cl)cc1Cl` [BOSUTINIB], for which the AC50 in assay [1] is greater than 10 µM; at Progesterone receptor [5], 7.75 µM; at Endothelin-1 receptor it was greater than 30 µM; in assay [6], greater than 30 µM.
Regarding `O=C(O)c1cc(-c2ccc(F)cc2F)ccc1O` [DIFLUNISAL], the AC50 (in assay [1]; at Progesterone receptor [2]; on Progesterone receptor [3]) was greater than 10 µM each time.
As for `C[C@@H]1O[C@@H]1P(=O)(O)O` [FOSFOMYCIN], the results for the AC50 (in assay [1]; on Progesterone receptor [2]; on Progesterone receptor [3]) were greater than 10 µM, greater than 30 µM and greater than 30 µM, respectively.
`CC(C)NCC(O)COc1ccc(COCCOC(C)C)cc1` (stereo not drawn) [BISOPROLOL]: the values for the concentration at half-maximal activity (AC50) (in assay [1]; on Endothelin-1 receptor) were greater than 10 µM and greater than 30 µM, respectively.
Consider `Cc1ccc(C(=O)c2cc(O)c(O)c([N+](=O)[O-])c2)cc1` [TOLCAPONE], for which the AC50 in assay [1] is greater than 10 µM; on Progesterone receptor [2], greater than 30 µM; at Progesterone receptor [3], 1.09 µM.
For the compound `Cc1cc2c(cc1CC(=O)c1sccc1S(=O)(=O)Nc1onc(C)c1Cl)OCO2` [SITAXENTAN], the AC50 (at Histamine H3 receptor; on Progesterone receptor [5]; in assay [6]) was greater than 30 µM each time.
`C#C[C@]1(O)CC[C@H]2[C@@H]3CCc4cc(O)ccc4[C@H]3CC[C@@]21C` [ETHINYL ESTRADIOL]: the AC50 in assay [1] is greater than 10 µM; at Histamine H3 receptor, greater than 30 µM; at Progesterone receptor [5] it was 0.02 µM; at Endothelin-1 receptor, greater than 30 µM; in assay [6] it was greater than 30 µM.
Take `COC(=O)N[C@H](C(=O)N1CCC[C@H]1c1nc(-c2ccc(-c3ccc(-c4c[nH]c([C@@H]5CCCN5C(=O)[C@@H](NC(=O)OC)C(C)C)n4)cc3)cc2)c[nH]1)C(C)C`: the AC50 (in assay [1]; at Progesterone receptor [2]; in assay [4]; on Endothelin-1 receptor) was greater than 30 µM each time.
As to `C(=N\NC1=NCCN1)/c1c2ccccc2c(/C=N/NC2=NCCN2)c2ccccc12` [BISANTRENE], the AC50 (at Histamine H3 receptor; on Progesterone receptor [5]; in assay [6]) was greater than 30 µM each time.
As to `COC(=O)N[C@H](C(=O)N[C@@H](Cc1ccccc1)[C@@H](O)CN(Cc1ccc(-c2ccccn2)cc1)NC(=O)[C@@H](NC(=O)OC)C(C)(C)C)C(C)(C)C` [ATAZANAVIR], the AC50 in assay [1] is greater than 10 µM; on Progesterone receptor [2], greater than 30 µM; at Progesterone receptor [3], greater than 30 µM.
In the case of `CN(C)CCCN1c2ccccc2CCc2ccc(Cl)cc21` [CLOMIPRAMINE], the results for the AC50 (on Histamine H3 receptor; in assay [4]; in assay [6]) were greater than 30 µM, 1.4 µM and greater than 30 µM, respectively.
In the case of `C[C@H]1C[C@@H]2[C@H]([C@@H](O)C[C@@]3(C)[C@H]2CC[C@]3(O)C(=O)CO)[C@@]2(C)C=CC(=O)C=C12` [METHYLPREDNISOLONE], the concentration at half-maximal activity (AC50) in assay [1] is greater than 10 µM; on Progesterone receptor [2], 1.3 µM.
Take `CC(N)Cc1ccccc1` (stereo not drawn) [AMPHETAMINE]: the half-maximal activity concentration (AC50) in assay [1] is greater than 10 µM; at Progesterone receptor [2], greater than 30 µM; in assay [4] it was greater than 30 µM; at Endothelin-1 receptor, greater than 30 µM; at Progesterone receptor [3], greater than 30 µM.
With `CCC(=O)O[C@H]1[C@H](O[C@@H]2[C@@H](C)[C@H](O[C@H]3C[C@@](C)(OC)[C@@H](O)[C@H](C)O3)[C@@H](C)C(=O)O[C@H](CC)[C@@](C)(O)[C@H](O)[C@@H](C)C(=O)[C@H](C)C[C@@]2(C)O)O[C@H](C)C[C@@H]1N(C)C` [ERYTHROMYCIN PROPIONATE], the concentration at half-maximal activity (AC50) is greater than 30 µM at Histamine H3 receptor, 10.4 µM at Progesterone receptor [5] and greater than 30 µM in assay [6].
For the compound `COc1ccc2c(c1)C(=O)N(CCc1ccc(S(=O)(=O)NC(=O)NC3CCCCC3)cc1)C(=O)C2(C)C` [GLIQUIDONE], the half-maximal activity concentration (AC50) (in assay [1]; at Progesterone receptor [2]; in assay [4]; on Endothelin-1 receptor; at Progesterone receptor [3]) was greater than 30 µM each time.
Turning to `COC(=O)C1=C(C)NC(C)=C(C(=O)OCC(C)C)C1c1ccccc1[N+](=O)[O-]` (stereo not drawn) [NISOLDIPINE], the AC50 was greater than 10 µM in assay [1], greater than 30 µM at Progesterone receptor [2], 11 µM in assay [4] and 4.9 µM at Progesterone receptor [3].
